Data: patent publication US20260176295A1, “PHOSPHONATE CONJUGATES AND USES THEREOF” (The Translational Genomics Research Institute, priority 2019, published 2026)
pIC50: −log10 of the molar value. Like-named read-outs stand apart in the source and are kept apart here. Each block holds one compound with its values, some of them ahead of it.

Assays:
[1] = target: T1, RON Kinase Enzyme (Homo sapiens, UniProt Q04912); test: Kinase ADP-Glo inhibition assay; type: biochemical; conditions: 25 μM ATP
T1 construct: purchased Promega V3921
Experimental: • Assay Buffer • 40 mM Tris-HCl pH7.5, 20 mM MgCl2, 0.1 mg/mL BSA • RON Kinase Enzyme System (Promega #: V3921) • Axltide Substrate • RON Kinase Enzyme • ADP-Glo™ Assay (Promega #: V9101) • ATP, 10 mM • ADP-Glo™ Reagent • Kinase Detection Reagent • 384-well white assay plates
A ten point serial dilution of compound was prepared at 5× concentration in assay buffer with the final assay concentrations starting at 30 μM, 10 μM, 3 μM, 1 μM . . . 0 μM. Enzyme, substrate, and ATP were used at 25 ng, 200 ng and 25 μM, respectively. The assay plate was set up by mixing the components in a total reaction volume of 10 μL per well. The plate was centrifuged gently for 10 seconds and incubated at room temperature (RT) for 60 minutes in the dark. The ADP-Glo Reagent and kinase detection reagent were added and incubated as recommended. The reaction was quantified by measuring luminescence on the Perkin Elmer Envision plate reader. Data was analyzed using Graphpad Prism 7 software.

[2] = target: RON/MST1R (Homo sapiens, UniProt Q04912); test: Ron tyrosine kinase inhibition assay (10 dose IC50 mode, 10 μM ATP); type: biochemical; conditions: read-out: Compound IC50
Experimental: Compounds were tested in 10 dose IC50 mode with 3-fold serial dilution starting at 100 μM. […] Reactions were carried out at 10 μM ATP. Data pages include raw data, % Enzyme activity (relative to DMSO controls) and curve fits. Curve fits were performed where the enzyme activities at the highest concentration of compounds were less than 65%.
IC50 values may be determined using GraphPad Prism 5 software. The data may be entered as an X-Y plot into the software as percent inhibition for each concentration of the drug. The concentration values of the drug may be log transformed and the nonlinear regression may be carried out using the “sigmoidal dose-response (variable slope)” option within the GraphPad software to model the data and calculate IC50 values. The IC50 values reported are the concentration of drug at which 50% inhibition was reached.

[3] = Pharmacokinetic (PK) study of phosphate conjugates of BMS-777607 in male swiss albino mice; type: in vivo; conditions: 2 mg/kg single intravenous bolus; for AUC(0-inf) / AUC(0-t) / C0 / clearance / half-life / Vd / Kp: mouse; for Vd: read-out: VSS; for Kp: read-out: bone to plasma ratios (AUClast)
Experimental: For extended time points (>24 hrs), BID dosing was done 8 hr apart.
The study was performed using sparse design to obtain composite profile (n=3/time point) as summarized in the table1. Blood and whole bone with marrow were collected at predetermined time points. At each time point, about 120 μL of blood was collected by retro-orbital sinus puncture into a labeled microfuge tube containing 200 mM K2EDTA solution (20 μL per mL of blood). The blood samples were processed within 30 minutes to obtain the plasma samples. At respective time points, blood samples were collected and animals were euthanized to harvest whole femur bone (bone with marrow). All plasma and bone with marrow samples were stored at −80° C.
The plasma and bone with bone marrow homogenate samples were analyzed using a fit-for purpose LC-MS/MS method with a lower limit of quantification (LLOQ) of 1.00 ng/ml (plasma) and 11.0 ng/g (bone). In some instances, bone marrow was separated from bone and analyzed independently. The pharmacokinetic parameters of the drugs were calculated using the non-compartmental analysis tool of validated Phoenix® WinNonlin® software (version 8.0).

[4] = male, Swiss Albino, in vivo, iv, 2 mg/kg, Bone with Bone marrow
[5] = male, Swiss Albino, in vivo, iv, 2 mg/kg, Plasma
[6] = in vivo, Plasma, male Swiss Albino mice

T1 sequence (Q04912 25-1400): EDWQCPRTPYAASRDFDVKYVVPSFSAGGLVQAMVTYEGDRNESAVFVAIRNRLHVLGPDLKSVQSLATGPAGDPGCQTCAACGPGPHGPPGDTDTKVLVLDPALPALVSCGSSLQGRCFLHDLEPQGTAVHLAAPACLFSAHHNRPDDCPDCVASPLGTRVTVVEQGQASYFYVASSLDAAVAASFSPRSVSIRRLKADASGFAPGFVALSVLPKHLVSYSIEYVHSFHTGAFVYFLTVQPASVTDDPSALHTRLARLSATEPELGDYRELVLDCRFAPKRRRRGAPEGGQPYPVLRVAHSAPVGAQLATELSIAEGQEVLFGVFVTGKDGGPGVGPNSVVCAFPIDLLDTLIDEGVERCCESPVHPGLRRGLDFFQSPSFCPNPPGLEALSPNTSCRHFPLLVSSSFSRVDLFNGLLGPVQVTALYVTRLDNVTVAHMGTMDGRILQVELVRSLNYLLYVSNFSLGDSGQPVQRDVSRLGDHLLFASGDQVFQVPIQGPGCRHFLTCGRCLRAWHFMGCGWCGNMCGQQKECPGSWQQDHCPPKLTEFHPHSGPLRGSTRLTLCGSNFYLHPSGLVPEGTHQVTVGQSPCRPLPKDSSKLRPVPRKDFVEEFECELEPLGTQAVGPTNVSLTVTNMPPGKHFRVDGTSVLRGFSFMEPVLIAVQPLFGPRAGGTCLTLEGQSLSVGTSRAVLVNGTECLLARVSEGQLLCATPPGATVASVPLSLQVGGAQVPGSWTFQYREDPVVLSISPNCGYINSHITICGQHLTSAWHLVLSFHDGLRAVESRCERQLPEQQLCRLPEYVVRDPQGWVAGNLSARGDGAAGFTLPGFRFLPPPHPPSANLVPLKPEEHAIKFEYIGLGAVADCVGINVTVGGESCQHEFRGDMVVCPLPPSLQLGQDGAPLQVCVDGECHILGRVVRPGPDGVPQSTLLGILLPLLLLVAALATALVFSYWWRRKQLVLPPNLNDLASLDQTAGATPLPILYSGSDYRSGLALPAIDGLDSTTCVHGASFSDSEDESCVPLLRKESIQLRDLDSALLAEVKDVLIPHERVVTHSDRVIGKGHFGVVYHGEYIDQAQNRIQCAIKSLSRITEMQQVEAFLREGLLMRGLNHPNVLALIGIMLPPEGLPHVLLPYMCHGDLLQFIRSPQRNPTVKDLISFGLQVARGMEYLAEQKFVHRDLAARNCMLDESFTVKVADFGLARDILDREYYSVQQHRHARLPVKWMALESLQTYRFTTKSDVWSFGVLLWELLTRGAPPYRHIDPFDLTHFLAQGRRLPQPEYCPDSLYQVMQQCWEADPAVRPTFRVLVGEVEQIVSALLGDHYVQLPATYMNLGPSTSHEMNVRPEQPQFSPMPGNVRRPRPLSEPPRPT
Sequence of RON/MST1R (Q04912 25-1400): as above

Compound: CCOc1ccn(-c2ccc(F)cc2)c(=O)c1C(=O)Nc1ccc(Oc2ccnc(NC(P(=O)(OCC)OCC)P(=O)(OCC)OCC)c2Cl)c(F)c1 [Compound 9, tetraethyl (((3-chloro-4-(4-(4-ethoxy-1-(4-fluorophenyl)-2-oxo-1,2-dihydropyridine-3-carboxamido)-2-fluorophenoxy)pyridin-2-yl)amino)methylene)bis(phosphonate)]
pIC50 [1]: 4.47

Compound: Nc1nccc(Oc2ccc(NC(=O)c3c(OCP(=O)([O-])[O-])ccn(-c4ccc(F)cc4)c3=O)cc2F)c1Cl.[Na+].[Na+] [Compound 10, (((3-((4-((2-amino-3-chloropyridin-4-yl)oxy)-3-fluorophenyl)carbamoyl)-1-(4-fluorophenyl)-2-oxo-1,2-dihydropyridin-4-yl)oxy)methyl)phosphonate]
pIC50 [1]: 6.26
accumulation in bone [3]: accumulated in the bone
AUCinf ([3]; Bone with Bone marrow): 2920 h*ng · h/mL
AUC(0-t) [3, 4]: 2420 ng·h/mL
clearance [3, 4]: 11.4 mL/min/kg
half-life [3, 4]: 96.6 min
Vd [3, 4]: 1.5 L/kg
AUC(0-t) [3, 5]: 9830 ng·h/mL
clearance [3, 5]: 3.36 mL/min/kg
half-life [3, 5]: 59.2 min
Vd [3, 5]: 0.179 L/kg
Kp ([3]; in vivo): 0.25
AUC(0-inf) ([3]; in vivo, Plasma): 9910 ng·h/mL
C0 ([3]; in vivo, Plasma): 16000 ng/mL

Compound: CCOc1ccn(-c2ccc(F)c(OP(=O)(O)O)c2)c(=O)c1C(=O)Nc1ccc(Oc2ccnc(N)c2Cl)c(F)c1 [Compound 12, sodium 5-(3-((4-((2-amino-3-chloropyridin-4-yl)oxy)-3-fluorophenyl)carbamoyl)-4-ethoxy-2-oxopyridin-1(2H)-yl)-2-fluorophenyl phosphate]
pIC50 [1]: 7.24
AUC(0-inf) [3, 6]: 963 ng·h/mL
AUC(0-t) [3, 6]: 959 ng·h/mL
C0 [3, 6]: 4680 ng/mL
clearance [3, 6]: 34.6 mL/min/kg
half-life [3, 6]: 70.2 min
Vd [3, 6]: 0.879 L/kg

Compound: CCOc1ccn(-c2ccc(F)c(COP(=O)(O)O)c2)c(=O)c1C(=O)Nc1ccc(Oc2ccnc(N)c2Cl)c(F)c1 [Compound 13, sodium 5-(3-((4-((2-amino-3-chloropyridin-4-yl)oxy)-3-fluorophenyl)carbamoyl)-4-ethoxy-2-oxopyridin-1(2H)-yl)-2-fluorobenzyl phosphate]
pIC50 [1]: 5.61

Second part, the compound after the results:

pIC50 [1]: 7.74
pIC50 [2]: 7.76
AUC(0-inf) ([3]; Plasma): 1690 ng·h/mL
AUC(0-t) ([3]; Plasma): 1690 ng·h/mL
C0 ([3]; Plasma): 3610 ng/mL
clearance ([3]; Plasma): 19.7 mL/min/kg
half-life ([3]; Plasma): 205 min
Vd ([3]; Plasma): 1.42 L/kg
AUC(0-t) ([3]; bone (without marrow), Bone only): 296 ng·h/mL
Kp ([3]; bone / plasma): 0.17
Compound: CCOc1ccn(-c2ccc(F)cc2)c(=O)c1C(=O)Nc1ccc(Oc2ccnc(N)c2Cl)c(F)c1 [BMS-777607, N-(4-((2-amino-3-chloropyridin-4-yl)oxy)-3-fluorophenyl)-4-ethoxy-1-(4-fluorophenyl)-2-oxo-1,2-dihydropyridine-3-carboxamide, reference compound]

pIC50 [1]: 4.87
pIC50 [2]: 4.87
Compound: CCOc1ccn(-c2ccc(F)cc2)c(=O)c1C(=O)Nc1ccc(Oc2ccnc(NC(P(=O)(O)O)P(=O)(O)O)c2Cl)c(F)c1 [Compound 1, (((3-chloro-4-(4-(4-ethoxy-1-(4-fluorophenyl)-2-oxo-1,2-dihydropyridine-3-carboxamido)-2-fluorophenoxy)pyridin-2-yl)amino)methylene)diphosphonic acid]

pIC50 [1]: 5.89
Compound: CCOc1ccn(-c2ccc(F)c(OCCC(P(=O)(O)O)P(=O)(O)O)c2)c(=O)c1C(=O)Nc1ccc(Oc2ccnc(N)c2Cl)c(F)c1 [Compound 11, sodium (3-(5-(3-((4-((2-amino-3-chloropyridin-4-yl)oxy)-3-fluorophenyl)carbamoyl)-4-ethoxy-2-oxopyridin-1(2H)-yl)-2-fluorophenoxy)propane-1,1-diyl)bis(phosphonate)]
